Residues, ends and D or L forms follow the SMILES beside them.
Legend:
β1-integrin = target: T1, β1-integrin (Homo sapiens, UniProt P05556); experiment: Flow cytometry of cell-surface active β1-integrin (9EG7) in MDA MB 231 cells; assay type: cell-based; conditions: MDA MB 231, 2 mM MnCl2, positive control
T1 construct: endogenous in cells; host or cells: MDA MB 231 human breast cancer cells
Experimental: FIG. 3: Kindpep1 reduces β1-integrin activation. Fluorescence activated sorter (FACS) histograms (top) and the corresponding bar graphs showing the mean fluorescence intensity (MFI) of cell-surface active β-1 integrin (9EG7 staining) of MDA MB 231 cells untreated, treated with Kindpep1 (200 μM) for 15 h or treated with 2 mM MnCl2.
To quantify the expression levels of integrins, cultured cells were trypsinized, washed and incubated for 1 h at 4° C. in phosphate-buffered saline (PBS) containing 150 mM NaCl and 1% BSA with the rat anti-1 integrin (9EG7 clone, 1:300) primary antibodies obtained from BD Biosciences. Cells were then washed 3 times, incubated with Alexa Fluor 488-conjugated secondary antibody for 1 h at 4° C. and washed. 1×10^4 cells were analyzed on a FACS Calibur. The mean fluorescence intensity of each sample was obtained using the Flowing software 2.
The effect of Kindpep1 on β1-integrin activation was confirmed by performing the same immunofluorescence assays using the human breast cancer cell line MDA MB 231, characterized by a high Kindlin-1 protein endogeneous expression.

[1] = target: β1-integrin of 168FARN mouse breast cancer cells (endogenous) (mouse) (UniProt P09055); experiment: cell-based or functional assay
4T1-luc cells = experiment: 4T1-luc metastatic breast cancer model in BALB/c mice; assay type: in vivo; conditions: BALB/c mice, 2, 10 or 50 mg/kg, 7 day per week during 10 days
Text: FIG. 5: Kindpep1 reduces tumor growth and metastatic spread in breast cancer in vivo. A. Diagram presenting the course of the experiment. B. Corresponding relative tumor growth graph to bioluminescence images of tumors at day 25. C. Corresponding graph showing the quantification of the total area of metastatic nodules found in the different groups of mice to bioluminescence images of metastasis at day 25. Area ph/s/group stands for area photon/second/group.
4T1-luc model: 1×10^5 4T1-luc cells were inoculated subcutaneously in the flanks of 6-week old female BALB/c mice (n=28). Eleven days after tumor cell inoculation, […] mice were randomly assigned to receive intraperitoneal injection of Kindpep1 (2, 10 or 50 mg/kg) or placebo (PBS). The tumor growth and the progression of metastatic lesions were also weekly monitored by bioluminescence imaging of animals using the Nightowl imaging system. On day 25 after tumor cell inoculation, anesthetized mice were sacrificed by cervical dislocation.
These observations prompted the investigation of the effects of Kindpep1 in vivo. […] Thus, the effects of Kindpep1 on tumor dissemination in a metastatic breast cancer model was studied. 4T1 cells were used because they have a high Kindlin-1 expression and have been also described to form lung metastasis in vivo. […]

[2] = tested on: H358 lung cancer cell line; experiment: NCI-H358 KRAS-dependent lung cancer xenograft mouse model; assay type: in vivo; conditions: 10 mg/Kg intraperitoneal 5 days per week
Experimental: FIG. 9: Kindpep decreases tumor growth of KRAS-dependent tumors in vivo. A. Diagram presenting the course of the experiment. B. Scatter plot showing the tumor volume of the different mice of the control and Kindpep1 treated groups, at the end of the treatment. Mean±SD are represented (*p<0.05). C. Graph monitoring tumor growth of control and Kindpep1 treated mice during the course of the experiment. Mean±SD are represented.
NCI-H358 model: 1×10^5 cells were injected subcutaneously in the flanks of 6-week old female BALB/c mice (n=10 mice for each control and treated groups). Tumor volume was measured with caliper 3 times a week. […] Tumor volumes were calculated as: Volume (cm^3)=a×b^2/2 (a and b are the two registered perpendicular diameters a>b). Tumor growth inhibition (TGI) was calculated using the following formula [1−(Vft−V0t)/(Vfc−V0c))]*100 where Vft=final volume of the treated group (at the end of the treatment); Vot=initial volume of the treatment group (at the beginning of the treatment); Vfc=final volume of the control group (at the end of the treatment); V0c=initial volume of the control group (at the beginning of the treatment).
Finally, inventors wanted to validate in vivo the impact of Kindpep1 treatment in KRAS-dependent tumors. […] The treatment was administered by intraperitoneal injections 5 days per week and tumor growth was monitored for 50 days (FIG. 9A).

[3] = tested on: triple negative breast cancer PDX; experiment: Triple negative breast cancer patient derived xenograft (PDX) model; assay type: in vivo; conditions: nude mice, 10 mg/Kg intraperitoneal 5 days per week
Experimental: FIG. 6: Kindpep1 reduces the metastatic spread in a breast cancer PDX model. A. Diagram presenting the course of the experiment. B Quantification of the number of metastatic nodules found in the lungs of control and Kindpep1 treated mice. Mean±SEM are represented. Statistical analyses were performed by a t-test.
The triple negative breast cancer PDX model expressing high levels of Kindlin-1 was obtained from the Laboratoire d'Investigation Pré-clinique. Informed consent was obtained from patient before xenograft establishment. When tumor reached a volume of 60 to 200 mm^3, mice were randomly assigned to the control or treated group. Kindpep1 was administrated by intraperitoneal injection at a dose of 10 mg/kg 5 times a week. The vehicle alone (Nacl 0.9%) was administered to the control group following the same treatment regimen as with the drug. The control and treated group consisted of 10 mice each.
Then, a triple negative breast cancer patient derived xenograft (PDX) model previously characterized as highly metastatic and presenting high expression levels of Kindlin-1 was chosen. Tumor fragments were grafted into the interscapular fat pad of female nude immunodeficient mice and 5 days later the treatment started. […] The treatment was administered by intraperitoneal injections 5 days per week and tumor growth was monitored until reaching the ethical size, i.e. 2 cm^3 (FIG. 6A). […]

T1 sequence (P05556 21-798): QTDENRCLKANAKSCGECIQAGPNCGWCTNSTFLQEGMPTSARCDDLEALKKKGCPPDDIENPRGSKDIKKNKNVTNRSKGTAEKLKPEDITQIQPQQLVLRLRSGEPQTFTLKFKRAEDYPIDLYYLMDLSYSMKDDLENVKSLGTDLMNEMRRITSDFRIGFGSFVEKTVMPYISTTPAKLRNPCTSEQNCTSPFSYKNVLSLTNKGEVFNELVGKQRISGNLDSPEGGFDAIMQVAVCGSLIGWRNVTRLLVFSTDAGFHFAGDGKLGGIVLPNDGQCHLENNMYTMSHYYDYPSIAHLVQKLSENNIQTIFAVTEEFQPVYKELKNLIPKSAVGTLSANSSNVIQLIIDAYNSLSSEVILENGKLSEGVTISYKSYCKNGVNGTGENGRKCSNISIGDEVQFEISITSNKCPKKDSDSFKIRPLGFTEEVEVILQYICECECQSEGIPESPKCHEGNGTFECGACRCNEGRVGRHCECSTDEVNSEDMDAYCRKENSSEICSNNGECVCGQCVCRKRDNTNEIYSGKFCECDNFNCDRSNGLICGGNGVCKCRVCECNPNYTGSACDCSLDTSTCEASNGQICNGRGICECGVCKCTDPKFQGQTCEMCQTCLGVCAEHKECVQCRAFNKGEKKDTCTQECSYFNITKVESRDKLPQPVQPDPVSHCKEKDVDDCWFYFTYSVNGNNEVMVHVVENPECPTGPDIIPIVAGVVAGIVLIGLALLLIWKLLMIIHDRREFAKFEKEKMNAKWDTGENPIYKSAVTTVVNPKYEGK
Chain of β1-integrin of 168FARN mouse breast cancer cells (endogenous) (mouse) (P09055 21-798): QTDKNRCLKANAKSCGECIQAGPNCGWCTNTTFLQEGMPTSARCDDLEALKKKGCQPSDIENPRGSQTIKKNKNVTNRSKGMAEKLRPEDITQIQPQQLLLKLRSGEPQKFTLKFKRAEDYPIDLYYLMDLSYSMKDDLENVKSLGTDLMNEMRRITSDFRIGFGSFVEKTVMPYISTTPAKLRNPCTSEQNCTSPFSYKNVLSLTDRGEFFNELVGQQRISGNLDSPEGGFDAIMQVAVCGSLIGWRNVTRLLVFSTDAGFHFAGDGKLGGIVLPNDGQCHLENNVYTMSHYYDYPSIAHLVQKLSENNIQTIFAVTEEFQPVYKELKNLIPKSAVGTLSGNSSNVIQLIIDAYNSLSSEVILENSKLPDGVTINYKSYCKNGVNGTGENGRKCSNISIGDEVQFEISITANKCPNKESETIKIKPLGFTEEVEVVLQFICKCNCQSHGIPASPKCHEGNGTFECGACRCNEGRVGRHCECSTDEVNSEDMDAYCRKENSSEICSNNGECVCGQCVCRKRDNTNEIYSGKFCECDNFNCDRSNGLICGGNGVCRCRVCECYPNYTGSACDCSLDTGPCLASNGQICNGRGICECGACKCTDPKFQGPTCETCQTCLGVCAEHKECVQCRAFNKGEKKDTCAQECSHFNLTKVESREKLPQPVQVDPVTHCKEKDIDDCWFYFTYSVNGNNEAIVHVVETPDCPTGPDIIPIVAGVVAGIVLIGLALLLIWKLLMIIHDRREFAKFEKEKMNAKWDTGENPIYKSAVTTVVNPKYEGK

Compound: [Cl][Mn][Cl] [MnCl2]
- levels of active β1-integrin on the cell surface (flow cytometry, 9EG7) (β1-integrin): increase levels of active β1-integrin

Compound: wild-type Kindlin-1 expressed in 168FARN cells (from UniProt Q9BQL6 1-677)
- velocity of cell migration of 168FARN cells in 3D collagen matrix (time-lapse tracking) [1]: 3.8 fold

Compound: CC[C@H](C)[C@H](NC(=O)[C@H](CCCCN)NC(=O)[C@H](CCCCN)NC(=O)[C@H](CCCCN)NC(=O)[C@H](CCCCN)NC(=O)[C@@H](N)C(C)C)C(=O)N[C@@H](CCCCN)C(=O)N[C@@H](C)C(=O)N[C@@H](CCC(=O)O)C(=O)N[C@H](C(=O)N[C@@H](CCCCN)C(=O)N[C@H](C(=O)N[C@@H](CO)C(=O)N[C@@H](Cc1ccccc1)C(=O)N[C@@H](CC(C)C)C(=O)N[C@@H](CCCNC(=N)N)C(=O)N[C@@H](CCSC)C(=O)N[C@@H](CCCCN)C(=O)N[C@@H](CC(N)=O)C(=O)N[C@@H](CCCNC(=N)N)C(=O)N[C@@H](CC(N)=O)C(=O)N[C@@H](CO)C(=O)N[C@@H](C)C(=O)N[C@@H](CO)C(=O)N[C@@H](CCC(N)=O)C(=O)N[C@H](C(=O)N[C@@H](C)C(=O)N[C@@H](CO)C(=O)N[C@@H](CO)C(=O)N[C@@H](CC(C)C)C(=O)O)C(C)C)[C@@H](C)CC)[C@@H](C)CC [Kindpep1] (H-VKKKKIKAEIKISFLRMKNRNSASQVASSL-OH)
- death during the treatment (4T1-luc cells): no death was observed
- side effects (4T1-luc cells): no any side effects was detected
- toxicities in nude mice [2]: without apparent toxicities
- death during the treatment [3]: no death was observed
- side effects [3]: no side effects were detected
